The record followed here is patent US20250074890A1, “CYANOPYRIDINE AND CYANOPYRIMIDINE BCL6 DEGRADERS” (DANA-FARBER CANCER INSTITUTE, INC., priority 2021, published 2025).

Structures can show the parent of a compound that is named as a salt. Where only a bound is given, the exact number is not on record here.

The target of this assay is T1, BCL6 (Homo sapiens, UniProt P41182).
T1 construct: Endogenous BCL6 was tagged with the 11-amino acid SmBiT through CRISPR/Cas9 gene editing; endogenous in cells; host or cells: Su-DHL-4 (CRISPR/Cas9 knock-in, single cell clone)
In words: HiBiT cellular degradation assay in Su-DHL-4 cells. The format is cell-based. The note with it: concentration to reach 50% degradation of endogenous SmBiT-tagged BCL6, 24 hours of compound treatment. The procedure:
DC50 (concentration to reach 50% degradation) values were determined from a cellular degradation assay (HiBiT, Promega™) in Su-DHL-4 cells (Table 1). Endogenous BCL6 was tagged with the 11-amino acid SmBiT through CRISPR/Cas9 gene editing and single cell clone selection. After 24 hours of compound treatment, cells were lysed and incubated with LgBiT protein to reconstitute intact nanoluciferase. Substrate was then added and relative luciferase units were measured. Degradation levels for each treatment were taken as a percentage compared to the control, 100% DMSO (Prism).
(HiBiT is a short tag that completes a luciferase, so light tracks the accessible tagged protein.)
In general, DC50 refers to the concentration at which degradation of the target reaches its halfway point. Low readings indicate a more potent degrader, high ones a less potent degrader. For `CNC(=O)COc1cc2cc(Nc3nc(N4C[C@@H](C)C(F)(F)[C@@H](C)C4)c(C#N)cc3Cl)ccc2n(C)c1=O` [Compound 2, 2-((6-((3-Chloro-5-cyano-6-((3S,5R)-4,4-difluoro-3,5-dimethylpiperidin-1-yl)pyridin-2-yl)amino)-1-methyl-2-oxo-1,2-dihydroquinolin-3-yl)oxy)-N-methylacetamide], the DC50 was determined as 6 nM. Molecule `CNCC(O)Cn1c(=O)c(OCC(=O)NC)cc2cc(Nc3nc(N4C[C@@H](C)C(F)[C@@H](C)C4)c(C#N)cc3Cl)ccc21` (stereo partly drawn) [Compound 67, 2-((6-((3-Chloro-5-cyano-6-((3S,4S,5R)-4-fluoro-3,5-dimethylpiperidin-1-yl)pyridin-2-yl)amino)-1-(2-hydroxy-3-(methylamino)propyl)-2-oxo-1,2-dihydroquinolin-3-yl)oxy)-N-methylacetamide] came in with a half-maximal degradation concentration (DC50) of 4 nM. Regarding `C[C@H]1CN(c2nc(Nc3ccc4c(c3)n(CCC(C)(C)O)c(=O)n4C)c(Cl)cc2C#N)C[C@@H](O)C1(F)F` [Compound 75, 5-chloro-2-((3R,5S)-4,4-difluoro-3-hydroxy-5-methylpiperidin-1-yl)-6-((3-(3-hydroxy-3-methylbutyl)-1-methyl-2-oxo-2,3-dihydro-1H-benzo[d]imidazol-5-yl)amino)nicotinonitrile], the DC50 was over 400 nM. The same measure for `CNC(=O)COc1cc2cc(Nc3nc(N4C[C@@H](C)[C@H](F)[C@@H](C)C4)c(C#N)cc3Cl)ccc2n(C)c1=O` [Compound 64, 2-((6-((3-chloro-5-cyano-6-((3R,4r,5S)-4-fluoro-3,5-dimethylpiperidin-1-yl)pyridin-2-yl)amino)-1-methyl-2-oxo-1,2-dihydroquinolin-3-yl)oxy)-N-methylacetamide]: 7 nM; for `C[C@H]1CN(c2nc(Nc3ccc4c(c3)n(CCC(C)(C)O)c(=O)n4C)c(F)cc2C#N)C[C@@H](N)C1(F)F` [Compound 81, 2-((3R,5S)-3-Amino-4,4-difluoro-5-methylpiperidin-1-yl)-5-fluoro-6-((3-(3-hydroxy-3-methylbutyl)-1-methyl-2-oxo-2,3-dihydro-1H-benzo[d]imidazol-5-yl)amino)nicotinonitrile hydrochloride]: 31 nM. The same measure for `C[C@H]1CN(c2nc(Nc3ccc4c(c3)n(C[C@H]3COC(=O)N3)c(=O)n4C)c(F)cc2C#N)C[C@@H](N)C1(F)F` [Compound 61, 2-((3R,5S)-3-amino-4,4-difluoro-5-methylpiperidin-1-yl)-5-fluoro-6-((1-methyl-2-oxo-3-(((S)-2-oxooxazolidin-4-yl)methyl)-2,3-dihydro-1H-benzo[d]imidazol-5-yl)amino)nicotinonitrile]: over 400 nM; for `CNC(=O)COc1cc2cc(Nc3nc(N4C[C@@H](C)[C@@H](F)[C@@H](C)C4)c(C#N)cc3Cl)ccc2n(CCCN)c1=O` [Compound 69, 2-((1-(3-Aminopropyl)-6-((3-chloro-5-cyano-6-((3S,4S,5R)-4-fluoro-3,5-dimethylpiperidin-1-yl)pyridin-2-yl)amino)-2-oxo-1,2-dihydroquinolin-3-yl)oxy)-N-methylacetamide]: 15 nM. The same measure for `C[C@H]1C[C@@H](N)CN(c2nc(Nc3ccc4c(c3)c3c(c(=O)n4C)OCC(F)(F)[C@H](C4CC4)N3)c(Cl)cc2C#N)C1` (single isomer, unassigned) [Compound 24]: 30 nM. Molecule `C[C@@H]1CN(c2nc(Nc3ccc4c(c3)n(CCC(C)(C)O)c(=O)n4C)c(Cl)cc2C#N)C[C@H](N)C1(F)F` [Compound 48, 2-((3S,5R)-3-Amino-4,4-difluoro-5-methylpiperidin-1-yl)-5-chloro-6-((3-(3-hydroxy-3-methylbutyl)-1-methyl-2-oxo-2,3-dihydro-1H-benzo[d]imidazol-5-yl)amino)nicotinonitrile] came in with a DC50 of 31 nM. The same measure for `CNC(=O)COc1cc2cc(Nc3nc(N4C[C@@H](C)[C@@H](O)[C@@H](C)C4)c(C#N)cc3Cl)ccc2n(C)c1=O` [Compound 46, 2-((6-((3-Chloro-5-cyano-6-((3R,4s,5S)-4-hydroxy-3,5-dimethylpiperidin-1-yl)pyridin-2-yl)amino)-1-methyl-2-oxo-1,2-dihydroquinolin-3-yl)oxy)-N-methylacetamide]: 6 nM; for `CNC(=O)COc1cc2cc(Nc3nc(N4C[C@@H](C)C(F)(F)[C@@H](C)C4)c(C#N)cc3Cl)ccc2nc1OCC1COC1` [Compound 58, 2-((6-((3-chloro-5-cyano-6-((3R,5S)-4,4-difluoro-3,5-dimethylpiperidin-1-yl)pyridin-2-yl)amino)-2-(oxetan-3-ylmethoxy)quinolin-3-yl)oxy)-N-methylacetamide]: over 400 nM.

`CNC(=O)COc1cc2cc(Nc3nc(N4C[C@@H](C)C(F)(F)[C@@H](C)C4)c(C#N)cc3Cl)ccc2n(CC2CCO2)c1=O` (stereo partly drawn) [Compound 6, 2-((6-((3-Chloro-5-cyano-6-((3R,5S)-4,4-difluoro-3,5-dimethylpiperidin-1-yl)pyridin-2-yl)amino)-1-(oxetan-2-ylmethyl)-2-oxo-1,2-dihydroquinolin-3-yl)oxy)-N-methylacetamide] had a DC50 of 13 nM. The same measure for `CNC(=O)COc1cc2cc(Nc3nc(N4C[C@@H](N)C(F)(F)[C@@H](C)C4)c(C#N)cc3Cl)ccc2n(C)c1=O` [Compound 44, 2-((6-((6-((3R,5S)-3-amino-4,4-difluoro-5-methylpiperidin-1-yl)-3-chloro-5-cyanopyridin-2-yl)amino)-1-methyl-2-oxo-1,2-dihydroquinolin-3-yl)oxy)-N-methylacetamide]: 70 nM; for `C[C@H]1CN(c2nc(Nc3ccc4c(c3)n(C[C@@H]3COC(=O)N3)c(=O)n4C)c(F)cc2C#N)C[C@@H](N)C1(F)F` [Compound 60, 2-[(3R,5S)-3-Amino-4,4-difluoro-5-methyl-1-piperidyl]-5-fluoro-6-[[1-methyl-2-oxo-3-[[(R)-2-oxooxazolidin-4-yl]methyl]benzimidazol-5-yl]amino]pyridine-3-carbonitrile]: over 400 nM.

With `C[C@@H]1CN(c2nc(Nc3ccc4c(c3)n(CCC(C)(C)O)c(=O)n4C)c(Cl)cc2C#N)C[C@H](O)C1(F)F` [Compound 74, 5-chloro-2-((3S,5R)-4,4-difluoro-3-hydroxy-5-methylpiperidin-1-yl)-6-((3-(3-hydroxy-3-methylbutyl)-1-methyl-2-oxo-2,3-dihydro-1H-benzo[d]imidazol-5-yl)amino)nicotinonitrile], the 50% degradation concentration (DC50) was 22 nM. The same measure for `CNC(=O)COc1cc2cc(Nc3nc(N4C[C@@H](C)[C@H](O)[C@@H](C)C4)c(C#N)cc3Cl)ccc2n(C)c1=O` [Compound 47, 2-((6-((3-Chloro-5-cyano-6-((3R,4r,5S)-4-hydroxy-3,5-dimethylpiperidin-1-yl)pyridin-2-yl)amino)-1-methyl-2-oxo-1,2-dihydroquinolin-3-yl)oxy)-N-methylacetamide]: 11 nM; for `C[C@H](O)Cn1c(=O)n(CCC(C)(C)O)c2cc(Nc3nc(N4C[C@@H](N)C(F)(F)[C@@H](C)C4)c(C#N)cc3F)ccc21` [Compound 90, 2-((3R,5S)-3-Amino-4,4-difluoro-5-methylpiperidin-1-yl)-5-fluoro-6-((3-(3-hydroxy-3-methylbutyl)-1-((S)-2-hydroxypropyl)-2-oxo-2,3-dihydro-1H-benzo[d]imidazol-5-yl)amino)nicotinonitrile]: 73 nM; for `C[C@H]1CN(c2nc(Nc3ccc4c(c3)n(CCC(C)(C)O)c(=O)n4C)c(F)cc2C#N)C[C@@H](O)[C@H]1F` [Compound 53, 5-Fluoro-2-((3R,4S,5S)-4-fluoro-3-hydroxy-5-methylpiperidin-1-yl)-6-((3-(3-hydroxy-3-methylbutyl)-1-methyl-2-oxo-2,3-dihydro-1H-benzo[d]imidazol-5-yl)amino)nicotinonitrile]: over 400 nM. `C[C@@H]1CN(c2nc(Nc3ccc4c(c3)n(CCC(C)(C)O)c(=O)n4CC3COC3)c(Cl)cc2C#N)C[C@H](N)C1(F)F` [Compound 37, 2-((3S,5R)-3-Amino-4,4-difluoro-5-methylpiperidin-1-yl)-5-chloro-6-((3-(3-hydroxy-3-methylbutyl)-1-(oxetan-3-ylmethyl)-2-oxo-2,3-dihydro-1H-benzo[d]imidazol-5-yl)amino)nicotinonitrile] had a DC50 of 62 nM. Regarding `CNC(=O)COc1cc2cc(Nc3ncc(C#N)c(N4C[C@H](CCO)C(F)(F)[C@H](C)C4)n3)ccc2n(C)c1=O` [Compound 3, 2-((6-((5-Cyano-4-((3S,5R)-4,4-difluoro-3-(2-hydroxyethyl)-5-methylpiperidin-1-yl)pyrimidin-2-yl)amino)-1-methyl-2-oxo-1,2-dihydroquinolin-3-yl)oxy)-N-methylacetamide], the 50% degradation concentration (DC50) is 3 nM.

Molecule `C[C@@H]1CN(c2nc(Nc3ccc4c(c3)n(C[C@H]3COC(=O)N3)c(=O)n4C)c(F)cc2C#N)C[C@H](C)[C@@H]1F` [Compound 89, 5-Fluoro-2-((3S,4S,5R)-4-fluoro-3,5-dimethylpiperidin-1-yl)-6-((1-methyl-2-oxo-3-(((S)-2-oxooxazolidin-4-yl)methyl)-2,3-dihydro-1H-benzo[d]imidazol-5-yl)amino)nicotinonitrile] displayed a 50% degradation concentration (DC50) of 102 nM. As for `C[C@H]1CN(c2nc(Nc3ccc4c(c3)n(CCC(C)(C)O)c(=O)n4C)c(Cl)cc2C#N)C[C@@H](O)[C@H]1F` [Compound 51, 5-chloro-2-((3R,4S,5S)-4-fluoro-3-hydroxy-5-methylpiperidin-1-yl)-6-((3-(3-hydroxy-3-methylbutyl)-1-methyl-2-oxo-2,3-dihydro-1H-benzo[d]imidazol-5-yl)amino)nicotinonitrile], the DC50 was over 400 nM.
